US8802597B2, “Herbicidal pyrimidines” (E I du Pont de Nemours and Company, priority 2003, dated 2014)

How the values were obtained:
Assay in all cases: Test E flooded paddy water application
Type in all cases: in vivo
[1] = system: barnyardgrass (Echinochloa crus-galli); settings: Flood, 21 days, scale 0 to 100 (0 no effect, 100 complete control); for Plant response rating, Barnyardgrass: 16 g ai/ha
Summary of the method: (§1)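 Greenhouse pots of Tama silt loam with weeds and rice at 2.0–2.5-leaf stage, flooded to 3 cm; compounds applied directly into paddy water, depth maintained. Visual rating versus untreated controls after 21 days, 0 (no effect) to 100 (complete control); 29.5/26.7 °C, 16-h photoperiod.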

[2] = system: bearded (brdd.) sprangletop (Leptochloa fusca ssp. fascicularis); settings: Flood, 21 days, scale 0 to 100 (0 no effect, 100 complete control)
Summary of the method: as §1

[3] = system: ducksalad (Heteranthera limosa); settings: Flood, 21 days, scale 0 to 100 (0 no effect, 100 complete control); for Plant response rating, Ducksalad: 16 g ai/ha
Summary of the method: as §1

[4] = system: early watergrass (Echinochloa oryzoides); settings: Flood, 21 days, scale 0 to 100 (0 no effect, 100 complete control)
Summary of the method: as §1

[5] = system: junglerice (Echinochloa colona); settings: Flood, 21 days, scale 0 to 100 (0 no effect, 100 complete control)
Summary of the method: as §1

[6] = system: purple redstem (Ammannia coccinea); settings: Flood, 21 days, scale 0 to 100 (0 no effect, 100 complete control)
Summary of the method: as §1

[7] = system: smallflower umbrella sedge (Cyperus difformis); settings: Flood, 21 days, scale 0 to 100 (0 no effect, 100 complete control)
Summary of the method: as §1

[8] = system: transplanted rice seedlings (Oryza sativa cv. ‘Japonica-M202’); settings: Flood, 21 days, scale 0 to 100 (0 no effect, 100 complete control)
Summary of the method: as §1

Row | Compound | Barnyardgrass plant response rating ([1]; 32 g ai/ha) | Barnyardgrass plant response rating ([1]; 64 g ai/ha) | Barnyardgrass plant response rating ([1]; 125 g ai/ha) | Barnyardgrass plant response rating ([1]; 250 g ai/ha) | Plant response rating, Barnyardgrass [1] | Sprangletop, Brdd. plant response rating ([2]; 64 g ai/ha) | Sprangletop, Brdd. plant response rating ([2]; 125 g ai/ha) | Sprangletop, Brdd. plant response rating ([2]; 250 g ai/ha) | Plant response rating, Sprangletop, Brdd. ([2]; 16 g ai/ha) | Ducksalad plant response rating ([3]; 32 g ai/ha) | Ducksalad plant response rating ([3]; 64 g ai/ha) | Ducksalad plant response rating ([3]; 125 g ai/ha) | Ducksalad plant response rating ([3]; 250 g ai/ha) | Plant response rating, Ducksalad [3] | Watergrass, Early plant response rating ([4]; 64 g ai/ha) | Watergrass, Early plant response rating ([4]; 125 g ai/ha) | Watergrass, Early plant response rating ([4]; 250 g ai/ha) | Plant response rating, Watergrass, Early ([4]; 16 g ai/ha) | Junglerice plant response rating ([5]; 64 g ai/ha) | Junglerice plant response rating ([5]; 125 g ai/ha) | also measured
1 | COC(=O)c1nc(-c2ccc(I)cc2)nc(N)c1Br [Compound 128] | 0 | 0 | 0 | 0 | 0 | 0 | 0 | 80 | 0 | 100 | 100 | 100 | 100 | 95 | 0 | 0 | 0 | 0 | 0 | 0 | Sprangletop, Brdd. plant response rating ([2]; 32 g ai/ha): 0; Watergrass, Early plant response rating ([4]; 32 g ai/ha): 0; Junglerice plant response rating ([5]; 32 g ai/ha): 0; Junglerice plant response rating ([5]; 250 g ai/ha): 10; Plant response rating, Junglerice ([5]; 16 g ai/ha): 0; Redstem plant response rating ([6]; 32 g ai/ha): 75; Redstem plant response rating ([6]; 64 g ai/ha): 80; Redstem plant response rating ([6]; 125 g ai/ha): 90; Redstem plant response rating ([6]; 250 g ai/ha): 90; Plant response rating, Redstem ([6]; 16 g ai/ha): 0; Sedge, Umbrella plant response rating ([7]; 32 g ai/ha): 60; Sedge, Umbrella plant response rating ([7]; 64 g ai/ha): 70; Sedge, Umbrella plant response rating ([7]; 125 g ai/ha): 100; Sedge, Umbrella plant response rating ([7]; 250 g ai/ha): 100; Plant response rating, Sedge, Umbrella ([7]; 16 g ai/ha): 0; Rice, Transplanted plant response rating ([8]; 32 g ai/ha): 0; Rice, Transplanted plant response rating ([8]; 64 g ai/ha): 0; Rice, Transplanted plant response rating ([8]; 125 g ai/ha): 0; Rice, Transplanted plant response rating ([8]; 250 g ai/ha): 0; Plant response rating, Rice, Transplanted ([8]; 16 g ai/ha): 0
2 | COC(=O)c1nc(-c2ccc(Br)cc2)nc(N)c1Br [Compound 129] | 0 | 0 | 0 | 0 | 0 | 0 | 0 | 70 | 0 | 100 | 100 | 100 | 100 | 100 | 0 | 0 | 0 | 0 | 0 | 0 | Plant response rating, Sprangletop, Brdd. ([2]; 32 g ai/ha): 0; Plant response rating, Watergrass, Early ([4]; 32 g ai/ha): 0; Junglerice plant response rating ([5]; 250 g ai/ha): 0; Plant response rating, Junglerice ([5]; 16 g ai/ha): 0; Plant response rating, Junglerice ([5]; 32 g ai/ha): 0; Redstem plant response rating ([6]; 64 g ai/ha): 75; Redstem plant response rating ([6]; 125 g ai/ha): 80; Redstem plant response rating ([6]; 250 g ai/ha): 95; Plant response rating, Redstem ([6]; 16 g ai/ha): 30; Plant response rating, Redstem ([6]; 32 g ai/ha): 60; Sedge, Umbrella plant response rating ([7]; 64 g ai/ha): 80; Sedge, Umbrella plant response rating ([7]; 125 g ai/ha): 100; Sedge, Umbrella plant response rating ([7]; 250 g ai/ha): 100; Plant response rating, Sedge, Umbrella ([7]; 16 g ai/ha): 0; Plant response rating, Sedge, Umbrella ([7]; 32 g ai/ha): 60; Rice, Transplanted plant response rating ([8]; 64 g ai/ha): 0; Rice, Transplanted plant response rating ([8]; 125 g ai/ha): 0; Rice, Transplanted plant response rating ([8]; 250 g ai/ha): 0; Plant response rating, Rice, Transplanted ([8]; 16 g ai/ha): 0; Plant response rating, Rice, Transplanted ([8]; 32 g ai/ha): 0
3 | COC(=O)c1nc(-c2ccc(Br)cc2)nc(N)c1Cl [Compound 96, methyl 6-amino-2-(4-bromophenyl)-5-chloro-4-pyrimidinecarboxylate] | 0 | 0 | 0 | 0 | 0 | 0 | 0 | 0 | 0 | 100 | 100 | 100 | 100 | 100 | 0 | 0 | 0 | 0 | 0 | 0 | Sprangletop, Brdd. plant response rating ([2]; 32 g ai/ha): 0; Watergrass, Early plant response rating ([4]; 32 g ai/ha): 0; Junglerice plant response rating ([5]; 32 g ai/ha): 0; Junglerice plant response rating ([5]; 250 g ai/ha): 0; Plant response rating, Junglerice ([5]; 16 g ai/ha): 0; Redstem plant response rating ([6]; 32 g ai/ha): 85; Redstem plant response rating ([6]; 64 g ai/ha): 90; Redstem plant response rating ([6]; 125 g ai/ha): 100; Redstem plant response rating ([6]; 250 g ai/ha): 100; Plant response rating, Redstem ([6]; 16 g ai/ha): 0; Sedge, Umbrella plant response rating ([7]; 32 g ai/ha): 100; Sedge, Umbrella plant response rating ([7]; 64 g ai/ha): 100; Sedge, Umbrella plant response rating ([7]; 125 g ai/ha): 100; Sedge, Umbrella plant response rating ([7]; 250 g ai/ha): 100; Plant response rating, Sedge, Umbrella ([7]; 16 g ai/ha): 100; Rice, Transplanted plant response rating ([8]; 32 g ai/ha): 0; Rice, Transplanted plant response rating ([8]; 64 g ai/ha): 0; Rice, Transplanted plant response rating ([8]; 125 g ai/ha): 10; Rice, Transplanted plant response rating ([8]; 250 g ai/ha): 20; Plant response rating, Rice, Transplanted ([8]; 16 g ai/ha): 0
